Measured values: paper PMC11956012, “Optimization of Cyclophilin B-Targeted Tri-vector Inhibitors for Novel MASH Treatments” (Journal of Medicinal Chemistry, 2025)
Like-named read-outs stand apart in the source and are kept apart here.

Key:
[1] = system: Salmonella typhimurium TA98; test: Ames fluctuation test TA98
Procedure: (§2) Bacterial cytotoxicity tests were carried out using Reverted Salmonella typhimurium strains
(§3) (TA98, TA100, TA1535, TA1537) that were incubated 96 hours at 37 Celsius. The results for
(§4) cytotoxicity are expressed as percent of control growth (OD650). Compounds with growth of
(§5) less than 60 % of control are flagged and considered cytotoxic.
(§6) Compounds were incubated for 96 hours at 37°C at 4 different concentrations (5 mM, 10 mM,
(§7) the absence and presence of rat liver S9 microsomes.
(§8) to the reversion of the histidine mutation (as judged by the ratio of OD430/OD570 being greater
(§9) than 1.0) are counted and recorded as positive counts. The significance of the positive counts
(§10) between the treatment (in the presence of test compound) and the control (in the absence of test
(§11) compound) are calculated using the one-tailed Fisher's exact test. Three significance levels are
(§12) Very strong positive, if p < 0.001, denoted as "+++"
(§13) Control experiments were carried out with 2-aminoanthracene (10 mM), 9-aminoacridine (10
(§14) mM), quercetin (30 mM) and streptozocitin (2.5 mM).

[2] = Human plasma protein binding; assay type: in vitro ADME
Excerpt: (§1) These experiments were subcontracted to Eurofins. […]

CYP2C19 = target: T1, CYP2C19 (Homo sapiens, UniProt P33261); test: Cytochrome P450 inhibition CYP2C19; assay type: in vitro ADME; settings: single point at 10 μM; substrate omeprazole
T1 construct: Eurofins (subcontracted)

Cyp B [3] = target: T2, Cyp B (Homo sapiens, UniProt P23284); test: biochemical; settings: Kd Cyp B, SPR-derived dissociation constant, 25 °C
Procedure: (§15) The cyclophilin binding properties of the compounds were assessed by Surface Plasmon Resonance (SPR) against Cyp A, B and D isoforms (Table 1, representative sensorgrams are shown in Figure 3A).[35]
Surface Plasmon Resonance (SPR)
(§16) SPR measurements were performed on a Biacore T200 instrument (Cytiva). Ni2+ -
(§17) nitrilotriacetic acid (NTA) sensor chips, 1-ethyl-3-(3-diaminopropyl) carbodiimide
(§18) hydrochloride (EDC) and N hydroxy succinimide (NHS) were purchased from Cytiva.
(§19) Immobilization and covalent stabilization of His-Cyps Pure His-cyclophilins on the NTA
(§20) sensor chip was performed essentially as described. [Wear et al., 2017, FEBS OpenBio], using
(§21) 200 nM concentrations of each protein, in Running Buffer (PBS, pH7.4; 0.05 % surfactant P20,
(§22) 2% v/v ethanol; 50 µM EDTA), at 30 µl min-1 with 60 second contact times on the activated
(§23) NTA surfaces. This gave signals of 1,921 RU for His-CypA, 1932 RU for His-CypB and 1,397
(§24) RU for His-CypD. Specific surface protein activity was assayed by passing saturating amounts
(§25) activity were obtained for His-CypA, -B and –D, respectively.
Kinetic titration experiments
(§26) Single cycle kinetic titration binding experiments were performed in triplicate at 25 °C. 3-fold
(§27) injected over the sensor surface, at 100 µl min-1 with a 90 s contact time and a 90 s dissociation
(§28) time. The sensor surface was regenerated between experiments by dissociating any formed
(§29) complex in running buffer for at least 1,200 seconds. The apparent on-rate (k+) and off-rate (k-
(§30) ) constants and the equilibrium dissociation constant (Kd) were calculated from reference

CYP1A = test: Cytochrome P450 inhibition CYP1A; assay type: in vitro ADME; settings: human, probe phenacetin; single point at 10 μM; substrate phenacetin
CYP2B6 = target: T3, CYP2B6 (Homo sapiens, UniProt P20813); test: Cytochrome P450 inhibition CYP2B6; assay type: in vitro ADME; settings: single point at 10 μM; substrate bupropion
T3 construct: Eurofins (subcontracted)
T3 sequence (P20813 1-491): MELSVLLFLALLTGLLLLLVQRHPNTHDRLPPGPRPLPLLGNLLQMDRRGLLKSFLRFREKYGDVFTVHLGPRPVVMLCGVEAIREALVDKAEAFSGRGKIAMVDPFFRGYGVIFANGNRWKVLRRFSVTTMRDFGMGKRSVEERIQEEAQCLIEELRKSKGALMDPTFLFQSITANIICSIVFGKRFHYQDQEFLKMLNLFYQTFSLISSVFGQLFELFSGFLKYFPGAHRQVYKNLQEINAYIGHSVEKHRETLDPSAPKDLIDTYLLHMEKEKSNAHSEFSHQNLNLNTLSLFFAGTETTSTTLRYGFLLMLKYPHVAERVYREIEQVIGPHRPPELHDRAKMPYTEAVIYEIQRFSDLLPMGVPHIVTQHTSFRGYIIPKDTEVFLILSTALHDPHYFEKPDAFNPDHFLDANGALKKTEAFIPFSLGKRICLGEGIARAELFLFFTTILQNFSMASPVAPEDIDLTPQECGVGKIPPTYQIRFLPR

iPSC-derived hepatocytes = test: In vitro hepatic steatosis (MASH) assay; assay type: cell-based; settings: 48 h treatment; for EC50: Hepatocyte, 48 h
CYP3A = test: Cytochrome P450 inhibition CYP3A; assay type: in vitro ADME; settings: human, single point at 10 μM
[4] = Intrinsic clearance, human hepatocytes; assay type: in vitro ADME; settings: hepatocytes
Caco-2 = Caco-2 permeability; settings: apparent permeability A-B
Caco-2 permeability = settings: human, Caco-2
Cyp A [5] = target: T4, Cyp A (Homo sapiens, UniProt P62937)
Procedure: as §15
Surface Plasmon Resonance (SPR)
as §16, §17, §18, §19, §20, §21, §22, §23, §24, §25
Kinetic titration experiments
as §26, §27, §28, §29, §30

[6] = Intrinsic clearance, rat liver microsomes; assay type: in vitro ADME
Cyp B [7] = target: T2, Cyp B; settings: from SPR Kd
Procedure: as §15
Surface Plasmon Resonance (SPR)
as §16, §17, §18, §19, §20, §21, §22, §23, §24, §25
Kinetic titration experiments
as §26, §27, §28, §29, §30

[8] = Intrinsic clearance, human liver microsomes; assay type: in vitro ADME
[9] = system: Salmonella typhimurium TA1537; test: Ames fluctuation test TA1537
Procedure: as §2, §3, §4, §5, §6, §7, §8, §9, §10, §11, §12, §13, §14

[10] = Rat plasma protein binding; assay type: in vitro ADME
Excerpt: as §1

CYP2C9 = target: T5, CYP2C9 (Homo sapiens, UniProt P11712); test: Cytochrome P450 inhibition CYP2C9; assay type: in vitro ADME; settings: single point at 10 μM; substrate diclofenac
T5 construct: Eurofins (subcontracted)

[11] = system: Salmonella typhimurium TA100; test: Ames fluctuation test TA100
Procedure: as §2, §3, §4, §5, §6, §7, §8, §9, §10, §11, §12, §13, §14

[12] = Intrinsic clearance, rat hepatocytes; assay type: in vitro ADME; settings: hepatocytes
[13] = system: Salmonella typhimurium strains (TA98, TA100, TA1535, TA1537); test: Ames tests, all strains (summary in words); settings: in absence and presence of liver S9 fractions
Procedure: as §2, §3, §4, §5, §6, §7, §8, §9, §10, §11, §12, §13, §14

Cyp A [14] = target: T4, Cyp A; test: Isothermal titration calorimetry (ITC), Cyp A; assay type: binding; set-up: full-length human CypA (M1 – E165); made in house; host or cells: Escherichia coli OverExpress C41 BL21(DE3); settings: 25 °C
Procedure: All ITC experiments were carried out at 25°C on a MicroCal Auto iTC200 (GE Healthcare)
solutions were heated to 65°C and/or sonicated prior to the experiment. Each experiment
consisted of an initial injection of 0.4 μL followed by repeated 2 μL injections to achieve
saturation. In all cases the first injection
was omitted from the data processing. All data were analysed using the MicroCal PEAQ-ITC
Analysis software. A fixed stoichiometry to 1 was applied during the non-linear regression of
the raw data for fitting the data.

[15] = Partition coefficient (Log D), shake-flask; settings: octanol/water
Procedure: (§31) Kinetic solubility measurements were carried out using a shake-flask technique. Compounds
(§32) were incubated for 24 hours at room temperature. Aqueous solubility (μM) was determined by
(§33) comparing the peak area of the principal peak in a calibration standard (200 μM) containing
(§34) organic solvent (methanol/water, 60/40, v/v) with the peak area of the corresponding peak in a
(§35) buffer sample. In addition, chromatographic purity (%) was defined as the peak area of the
(§36) principal peak relative to the total integrated peak area in the HPLC chromatogram of the
(§37) calibration standard. A chromatogram of the calibration standard of each test compound, along
(§38) with a UV/VIS spectrum with labeled absorbance maxima, was generated.
(§39) These were measured using a shake-flask technique. Compounds were incubated for 60 min at
(§40) room temperature. The total amount of compound was determined as the peak area of the
(§41) principal peak in a calibration standard (100 μM) containing organic solvent (methanol/water,
(§42) 60/40, v/v). The amount of compound in buffer was determined as the combined, volume
(§43) corrected, and weighted areas of the corresponding peaks in the aqueous phases of three
(§44) organic-aqueous samples of different composition. An automated weighting system was used
(§45) to ensure the preferred use of raw data from those samples with well quantifiable peak signals.
(§46) The amount of compound in organic was calculated by subtraction. Subsequently, Log D was
(§47) calculated as the Log10 of the amount of compound in the organic phase divided by the amount
of compound in the aqueous phase.

CYP2D6 = target: T6, CYP2D6 (Homo sapiens, UniProt P10635); test: Cytochrome P450 inhibition CYP2D6; assay type: in vitro ADME; settings: single point at 10 μM; substrate dextrometorphan
T6 construct: Eurofins (subcontracted)

[16] = system: Salmonella typhimurium TA1535; test: Ames fluctuation test TA1535
Procedure: as §2, §3, §4, §5, §6, §7, §8, §9, §10, §11, §12, §13, §14

Cyp D = Cyp D (Homo sapiens, UniProt P30405)
Procedure: as §15
Surface Plasmon Resonance (SPR)
as §16, §17, §18, §19, §20, §21, §22, §23, §24, §25
Kinetic titration experiments
as §26, §27, §28, §29, §30

[17] = Aqueous kinetic solubility, shake-flask
Procedure: as §31, §32, §33, §34, §35, §36, §37, §38, §39, §40, §41, §42, §43, §44, §45, §46, §47
of compound in the aqueous phase.

CYP2C8 = target: T7, CYP2C8 (Homo sapiens, UniProt P10632); test: Cytochrome P450 inhibition CYP2C8; assay type: in vitro ADME; settings: single point at 10 μM; substrate amodiaquine
T7 construct: Eurofins (subcontracted)
T7 sequence (P10632 1-490): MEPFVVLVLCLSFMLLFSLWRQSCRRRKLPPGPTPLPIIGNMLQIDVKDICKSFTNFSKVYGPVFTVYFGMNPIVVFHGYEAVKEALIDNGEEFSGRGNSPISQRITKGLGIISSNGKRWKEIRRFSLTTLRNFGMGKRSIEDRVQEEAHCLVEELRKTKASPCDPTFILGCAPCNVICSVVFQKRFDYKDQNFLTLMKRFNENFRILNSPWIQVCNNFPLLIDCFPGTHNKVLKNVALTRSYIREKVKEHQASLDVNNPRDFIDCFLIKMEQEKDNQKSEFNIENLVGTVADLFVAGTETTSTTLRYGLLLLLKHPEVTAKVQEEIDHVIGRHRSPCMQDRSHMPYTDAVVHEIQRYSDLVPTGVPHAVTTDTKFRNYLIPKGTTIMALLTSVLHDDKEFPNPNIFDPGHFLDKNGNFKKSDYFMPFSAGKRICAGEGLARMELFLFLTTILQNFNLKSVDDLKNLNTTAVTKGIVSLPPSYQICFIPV

T2 sequence (P23284 32-216 limits assumed): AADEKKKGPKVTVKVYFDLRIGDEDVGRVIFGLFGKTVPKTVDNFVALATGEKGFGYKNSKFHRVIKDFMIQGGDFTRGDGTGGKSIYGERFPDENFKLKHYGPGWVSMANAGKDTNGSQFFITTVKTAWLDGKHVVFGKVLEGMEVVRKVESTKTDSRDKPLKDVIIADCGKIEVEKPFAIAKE
T4 sequence (P62937 whole entry): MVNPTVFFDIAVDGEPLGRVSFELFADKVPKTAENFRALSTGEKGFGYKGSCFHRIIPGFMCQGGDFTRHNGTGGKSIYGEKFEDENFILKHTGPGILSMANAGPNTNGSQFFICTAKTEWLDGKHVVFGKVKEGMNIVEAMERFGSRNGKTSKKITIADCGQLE
T5 sequence (P11712 whole entry): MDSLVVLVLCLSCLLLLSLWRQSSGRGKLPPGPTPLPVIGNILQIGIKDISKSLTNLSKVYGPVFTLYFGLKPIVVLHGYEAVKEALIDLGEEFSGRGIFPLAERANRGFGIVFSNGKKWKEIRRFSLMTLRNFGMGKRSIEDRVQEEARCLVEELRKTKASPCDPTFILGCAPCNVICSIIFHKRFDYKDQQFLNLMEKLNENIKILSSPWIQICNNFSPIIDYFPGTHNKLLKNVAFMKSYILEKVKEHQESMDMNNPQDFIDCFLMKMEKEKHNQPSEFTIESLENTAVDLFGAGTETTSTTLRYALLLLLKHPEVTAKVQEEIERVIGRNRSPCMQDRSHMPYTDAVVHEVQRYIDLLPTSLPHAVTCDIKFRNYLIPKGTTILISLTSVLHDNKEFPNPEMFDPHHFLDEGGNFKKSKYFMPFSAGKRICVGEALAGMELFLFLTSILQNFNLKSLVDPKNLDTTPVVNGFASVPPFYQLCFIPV
T1 sequence (P33261 whole entry): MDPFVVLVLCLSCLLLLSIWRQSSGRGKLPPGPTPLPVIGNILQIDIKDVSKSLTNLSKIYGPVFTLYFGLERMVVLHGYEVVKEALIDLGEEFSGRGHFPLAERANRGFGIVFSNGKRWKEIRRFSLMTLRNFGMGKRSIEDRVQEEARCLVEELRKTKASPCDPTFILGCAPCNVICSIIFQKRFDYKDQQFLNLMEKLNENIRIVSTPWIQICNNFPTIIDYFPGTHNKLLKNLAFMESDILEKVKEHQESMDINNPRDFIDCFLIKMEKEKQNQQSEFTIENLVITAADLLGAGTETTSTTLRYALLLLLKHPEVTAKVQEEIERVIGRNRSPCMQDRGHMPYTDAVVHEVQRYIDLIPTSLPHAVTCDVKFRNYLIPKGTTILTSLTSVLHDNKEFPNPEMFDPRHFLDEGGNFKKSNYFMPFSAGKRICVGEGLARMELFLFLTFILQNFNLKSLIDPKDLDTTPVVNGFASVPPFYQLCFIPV
Sequence of Cyp D (P30405 42-207): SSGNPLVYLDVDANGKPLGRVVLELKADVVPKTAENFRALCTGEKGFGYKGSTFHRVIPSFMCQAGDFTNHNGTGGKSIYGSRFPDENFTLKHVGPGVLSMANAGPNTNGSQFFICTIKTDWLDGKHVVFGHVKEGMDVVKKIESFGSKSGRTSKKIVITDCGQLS
T6 sequence (P10635 whole entry): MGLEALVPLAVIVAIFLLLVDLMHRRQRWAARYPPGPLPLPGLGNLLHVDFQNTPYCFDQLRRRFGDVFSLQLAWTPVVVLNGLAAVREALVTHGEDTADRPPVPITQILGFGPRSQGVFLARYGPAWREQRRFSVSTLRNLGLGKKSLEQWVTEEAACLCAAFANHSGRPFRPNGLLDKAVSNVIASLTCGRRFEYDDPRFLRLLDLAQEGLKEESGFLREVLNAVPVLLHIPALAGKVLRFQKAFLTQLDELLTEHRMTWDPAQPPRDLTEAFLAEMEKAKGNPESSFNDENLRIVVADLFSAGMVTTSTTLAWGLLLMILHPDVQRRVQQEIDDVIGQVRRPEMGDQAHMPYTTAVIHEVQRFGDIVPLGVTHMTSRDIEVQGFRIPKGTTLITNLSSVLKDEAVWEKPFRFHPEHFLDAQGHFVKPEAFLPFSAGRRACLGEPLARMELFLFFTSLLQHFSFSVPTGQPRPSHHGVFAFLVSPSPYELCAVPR

Question: With `CSc1ccccc1[C@H]1CCCN1C(=O)CNC(=O)N(Cc1ccc(N)c(Cl)c1)Cc1nnn(C)n1` [Compound 11, 1-[(4-Amino-3-chloro-phenyl)methyl]-1-[(2-methyltetrazol-5-yl)methyl]-3-[2-oxo-2-[(2R)-2-(2-methylsulfanylphenyl)pyrrolidin-1-yl]ethyl]urea] as the compound, how does the “Ames fluctuation test TA98 +S9” value ([1]; with rat liver S9) read?
Answer: neg/neg

Question: What about the “Ames fluctuation test TA98 –S9” value ([1]; without S9) of the same compound?
Answer: neg/neg

Question: And the recovery [2]?
Answer: 88%

Question: And the fraction unbound at 10 µM ([2]; read-out: Human PPB free)?
Answer: 0.02

Question: And the “CYP2C19 omeprazole % inhibition” value (CYP2C19)?
Answer: 72%

Question: And the Kd (Cyp B [3])?
Answer: 12 ± 3 nM

Question: What about the inhibition at 10 µM (CYP1A) of the same compound?
Answer: 25%

Question: What about the “CYP2B6 bupropion % inhibition” value (CYP2B6) of the same compound?
Answer: 11%

Question: And the “effect on hepatocyte overall lipid levels and lipid droplet size (in words)” value (iPSC-derived hepatocytes)?
Answer: significant reduction

Question: What about the EC50 (iPSC-derived hepatocytes; 95% CI [lower limit, upper limit], read-out: EC50 steatosis) of the same compound?
Answer: ~300 nM

Question: What about the EC50 (iPSC-derived hepatocytes; read-out: EC50 MASH assay) of the same compound?
Answer: 258 nM

Question: And the inhibition at 10 µM (CYP3A; probe midazolam, substrate midazolam, read-out: CYP3A midazolam % inhibition)?
Answer: 73%

Question: And the inhibition at 10 µM (CYP3A; probe testoterone, substrate testoterone, read-out: CYP3A testoterone % inhibition)?
Answer: 59%

Question: What about the hepatocyte CLint ([4]; Table 3, read-out: Human Hepatocytes CL) of the same compound?
Answer: 13 µL/min/1e6 cells

Question: What about the half-life ([4]; read-out: Human Hepatocytes t1/2) of the same compound?
Answer: 74 min

Question: And the “Caco-2 A-B” value (Caco-2)?
Answer: 5 10^–6 cm/s

Question: What about the efflux ratio (Caco-2 permeability) of the same compound?
Answer: 2.8

Question: And the Kd (Cyp A [5])?
Answer: 110 ± 50 nM

Question: And the microsomal CLint ([6]; Table 3, read-out: Rat Liver microsomes CL)?
Answer: 352 µL/min/mg

Question: What about the half-life ([6]; read-out: Rat Liver microsomes t1/2) of the same compound?
Answer: 20 min

Question: And the “greater affinity for Cyp B compared to 12” value (Cyp B [7])?
Answer: ca. 7 fold

Question: And the “selectivity for Cyp B over Cyp A” value (Cyp B [7])?
Answer: 10 fold

Question: And the “selectivity for Cyp B over Cyp A and Cyp D” value (Cyp B [7])?
Answer: 10–20 fold

Question: What about the microsomal CLint ([8]; Table 3, read-out: Human Liver microsomes CL) of the same compound?
Answer: 558 µL/min/mg

Question: What about the half-life ([8]; read-out: Human Liver microsomes t1/2) of the same compound?
Answer: 12 min

Question: What about the “Ames fluctuation test TA1537 +S9” value ([9]; with rat liver S9) of the same compound?
Answer: neg/neg

Question: What about the “Ames fluctuation test TA1537 –S9” value ([9]; without S9) of the same compound?
Answer: neg/neg

Question: What about the recovery at 10 μM [10] of the same compound?
Answer: 99%

Question: And the fraction unbound at 10 µM ([10]; read-out: Rat PPB free)?
Answer: 0.11

Question: What about the “CYP2C9 diclofenac % inhibition” value (CYP2C9) of the same compound?
Answer: 45%

Question: What about the “Ames fluctuation test TA100 +S9” value ([11]; with rat liver S9) of the same compound?
Answer: neg/neg

Question: And the “Ames fluctuation test TA100 –S9” value ([11]; without S9)?
Answer: neg/neg

Question: And the hepatocyte CLint ([12]; Table 3, read-out: Rat Hepatocytes CL)?
Answer: 13 µL/min/1e6 cells

Question: What about the half-life ([12]; read-out: Rat Hepatocytes t1/2) of the same compound?
Answer: 78 min

Question: And the “Ames result in all strains tested” value [13]?
Answer: negative

Question: And the “DG (ITC)” value (Cyp A [14]; ITC titration to Cyp A)?
Answer: -9.7 ± 0.1 kcal/mol

Question: What about the “DH (ITC)” value (Cyp A [14]; ITC titration to Cyp A) of the same compound?
Answer: -16.4 ± 0.1 kcal/mol

Question: And the “TDS (ITC)” value (Cyp A [14]; ITC titration to Cyp A)?
Answer: -6.7 kcal/mol

Question: What about the Kd (Cyp A [14]; ITC, pH 6.5, 2% DMSO, read-out: Kd Cyp A from ITC) of the same compound?
Answer: 82 ± 6 nM

Question: And the logD at 1 h, 100 µM [15]?
Answer: 1.53

Question: And the “CYP2D6 dextrometor. % inhibition” value (CYP2D6)?
Answer: 18%

Question: What about the “Ames fluctuation test TA1535 +S9” value ([16]; with rat liver S9) of the same compound?
Answer: neg/neg

Question: And the “Ames fluctuation test TA1535 –S9” value ([16]; without S9)?
Answer: neg/neg

Question: What about the Kd (Cyp D) of the same compound?
Answer: 180 ± 100 nM

Question: And the solubility at 24 h ([17]; PBS, pH 7.4)?
Answer: > 200 µM

Question: And the solubility at 24 h ([17]; simulated gastric fluid)?
Answer: > 200 µM

Question: And the solubility at 24 h ([17]; simulated intestinal fluid)?
Answer: > 200 µM

Question: And the “CYP2C8 amodiaquine % inhibition” value (CYP2C8)?
Answer: 71%
